Among the test systems are A498 renal; IGROV1 ovarian; SW-620 colon; MOLT-4 leukemia; OVCAR-8 ovarian; MDA-MB-231 breast; OVCAR-3 ovarian; OVCAR-4 ovarian; ACHN renal; COLO 205 colon.
What all share (assay): growth of human tumour cells (NCI), 48 h

Molecules are shown by their SMILES.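 Each compound was tested at five concentrations against cells in 96-well plates for 48 hours. Here, GI50 denotes the concentration required for 50% inhibition of growth. The concentration for full growth arrest is given as TGI.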

As for `Cc1c(N2C(=O)/C(=C\c3ccc(N(C)C)cc3)N=C2c2ccccc2)c(=O)n(-c2ccccc2)n1C`, the GI50 is above 64.3 µM in the assay on A498 renal; 24.1 µM with IGROV1 ovarian; above 100 µM in the assay on SW-620 colon; 7.85 µM with MOLT-4 leukemia; 83.9 µM with OVCAR-8 ovarian; above 82.9 µM with MDA-MB-231 breast. The GI50 in the assay on OVCAR-3 ovarian was above 70.6 µM; in the assay on OVCAR-4 ovarian, 39.9 µM; in the assay on ACHN renal, above 100 µM; in the assay with COLO 205 colon, 43.7 µM. Further, the TGI in the assay with A498 renal, in the assay with IGROV1 ovarian, in the assay on SW-620 colon, in the assay with MOLT-4 leukemia, in the assay with OVCAR-8 ovarian and with MDA-MB-231 breast was above 100 µM throughout. The TGI in the assay on OVCAR-3 ovarian, with OVCAR-4 ovarian, with ACHN renal and in the assay with COLO 205 colon was above 100 µM throughout.

Take `O=C1c2ccccc2C(=O)c2c(NC(=O)c3ccc4c5c(ncnc35)-c3ccccc3C4=O)cccc21`: the TGI with A498 renal, in the assay on IGROV1 ovarian, in the assay on SW-620 colon, in the assay on MOLT-4 leukemia, in the assay with OVCAR-8 ovarian and with MDA-MB-231 breast was above 100 µM in each case. Besides, the TGI with OVCAR-3 ovarian, with OVCAR-4 ovarian, in the assay on ACHN renal and with COLO 205 colon was above 100 µM throughout.

As for `CC(=O)N[C@@H](Cc1ccc(OP(=O)(O)O)cc1)C(=O)N[C@H]1CCC(=O)N2CCC[C@@H](C(=O)NCc3ccc(O)cc3)N2C1=O`, the GI50 with A498 renal, with IGROV1 ovarian, with SW-620 colon, in the assay with MOLT-4 leukemia, in the assay on OVCAR-8 ovarian and in the assay with MDA-MB-231 breast was above 25 µM each time. Moreover, the GI50 with OVCAR-3 ovarian, with OVCAR-4 ovarian, with ACHN renal and in the assay on COLO 205 colon was above 25 µM throughout. For the same molecule, the TGI in the assay on A498 renal, in the assay with IGROV1 ovarian, in the assay on SW-620 colon, in the assay with MOLT-4 leukemia, with OVCAR-8 ovarian and in the assay with MDA-MB-231 breast was above 25 µM in each case. In addition, the TGI in the assay on OVCAR-3 ovarian, in the assay on OVCAR-4 ovarian, with ACHN renal and in the assay with COLO 205 colon was above 25 µM throughout.

With `O=[N+]([O-])c1ccc(-c2ccccc2)c([As](=O)(O)O)c1`, the GI50 was 16.5 µM with A498 renal; 8.35 µM with IGROV1 ovarian; 7.82 µM in the assay with SW-620 colon; 19.9 µM in the assay on MOLT-4 leukemia; 22.6 µM in the assay on OVCAR-8 ovarian; 10 µM with MDA-MB-231 breast. For the same molecule, the GI50 was 10.4 µM in the assay on OVCAR-3 ovarian, 14.6 µM with OVCAR-4 ovarian, 13.7 µM in the assay on ACHN renal and 12.8 µM in the assay with COLO 205 colon. Moreover, the TGI in the assay with A498 renal is 67 µM; with IGROV1 ovarian, 27.8 µM; in the assay on SW-620 colon, 24.4 µM; with MOLT-4 leukemia, above 100 µM; with OVCAR-8 ovarian, above 100 µM; in the assay on MDA-MB-231 breast it was 37.4 µM. Also, the TGI with OVCAR-3 ovarian is 29.3 µM; in the assay with OVCAR-4 ovarian, 52 µM; in the assay with ACHN renal, 30.1 µM; in the assay with COLO 205 colon, 27.4 µM.

Consider `CN(C)CCOc1nc2ccccc2c2c1-c1ccc(Cl)cc1C2=O`, for which the GI50 in the assay on A498 renal is 1.19 µM; with IGROV1 ovarian it was 0.444 µM; in the assay on SW-620 colon it was 0.34 µM; in the assay on MOLT-4 leukemia it was 0.302 µM; in the assay with OVCAR-8 ovarian, 0.386 µM; in the assay on MDA-MB-231 breast, 1.1 µM. Moreover, the GI50 with OVCAR-3 ovarian was 0.622 µM; in the assay on OVCAR-4 ovarian, 0.927 µM; with ACHN renal, 0.419 µM; with COLO 205 colon, 0.443 µM. The TGI turned out to be 2.87 µM in the assay on A498 renal; 1.73 µM in the assay with IGROV1 ovarian; 1.53 µM in the assay with SW-620 colon; 1.51 µM in the assay with MOLT-4 leukemia; 2.22 µM in the assay with OVCAR-8 ovarian; 3 µM in the assay on MDA-MB-231 breast. In addition, the TGI came out at 1.85 µM in the assay with OVCAR-3 ovarian, 4.04 µM in the assay on OVCAR-4 ovarian, 1.72 µM with ACHN renal and 1.72 µM in the assay on COLO 205 colon.

Consider `N#CC[C@H](C1CCCC1)n1cc(-c2ncnc3[nH]ccc23)cn1`, for which the GI50 in the assay with A498 renal was 13.3 µM; in the assay on IGROV1 ovarian, 34 µM; in the assay with SW-620 colon, 12.5 µM; with MOLT-4 leukemia, 20.7 µM; in the assay on OVCAR-8 ovarian, 30.3 µM; with MDA-MB-231 breast, 23.9 µM. The GI50 in the assay on OVCAR-3 ovarian was 24.2 µM; with OVCAR-4 ovarian, 20.4 µM; with ACHN renal it was 23.3 µM; in the assay with COLO 205 colon, 24.6 µM. Further, the TGI in the assay with A498 renal was 53.8 µM; with IGROV1 ovarian, above 100 µM; in the assay with SW-620 colon it was above 96.6 µM; with MOLT-4 leukemia, above 78.8 µM; with OVCAR-8 ovarian it was above 100 µM; in the assay with MDA-MB-231 breast, above 100 µM. Further, the TGI with OVCAR-3 ovarian is above 67.3 µM; with OVCAR-4 ovarian, above 79.1 µM; in the assay with ACHN renal it was above 100 µM; in the assay with COLO 205 colon, 67.1 µM.

Values taken from PubChem BioAssay (NCI).
